Test results: ChEMBL document CHEMBL4052740, “Potent antiobesity effect of a short-length peptide YY-analogue continuously administered in mice” (Bioorg Med Chem Lett, 2017)

Legend:
[1] = biological target: T1, Neuropeptide Y receptor type 2 (Homo sapiens, UniProt P49146); assay: Agonist activity at human Y2 receptor expressed in CHO cell membranes after 120 mins by [35S]GTPgammaS binding assay; format: functional
T1 sequence (P49146 whole entry): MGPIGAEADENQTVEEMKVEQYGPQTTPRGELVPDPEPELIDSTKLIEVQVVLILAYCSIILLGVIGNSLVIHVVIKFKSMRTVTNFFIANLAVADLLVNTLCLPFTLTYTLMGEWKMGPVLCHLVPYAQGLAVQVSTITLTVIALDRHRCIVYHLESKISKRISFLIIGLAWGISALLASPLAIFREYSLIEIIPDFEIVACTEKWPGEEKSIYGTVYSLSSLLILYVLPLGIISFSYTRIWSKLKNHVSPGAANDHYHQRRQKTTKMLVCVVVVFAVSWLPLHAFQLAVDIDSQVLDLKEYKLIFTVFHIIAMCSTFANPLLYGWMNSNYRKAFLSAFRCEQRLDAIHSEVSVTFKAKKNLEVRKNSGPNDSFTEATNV

[2] = biological target: T1, Neuropeptide Y receptor type 2; assay: Displacement of [125I]peptide YY from human Y2 receptor expressed in CHO cell membranes after 60 mins by TopCount scintillation counting analysis
Mus musculus = assay: Anorectic activity in C57BL/6J mouse assessed as inhibition of food intake at 1 mg/kg/day, sc administered by infusion as continuous dosing for 3 days relative to 1 mg/kg/day PYY (3 to 36 residues); format: functional; conditions: 72 h

| EC50 [1] | IC50 [2] | SMILES | inhibition in vivo at 1 mg/kg/day (Mus musculus) |
| --- | --- | --- | --- |
| 2.5 nM | 5.3 nM | CC(=O)N[C@@H](CO)C(=O)N1CCC[C@@H]1C(=O)N[C@@H](CCCNC(=N)N)C(=O)N[C@@H](Cc1cnc[nH]1)C(=O)N[C@@H](Cc1ccc(O)cc1)C(=O)N[C@@H](CC1CCCCC1)C(=O)N[C@@H](CC(N)=O)C(=O)N[C@@H](CC(C)C)C(=O)NC(C)(C)C(=O)N[C@H](C(=O)N[C@@H](CCCNC(=N)N)C(=O)N[C@@H](CCC(N)=O)C(=O)N[C@@H](CCCNC(=N)N)C(=O)N[C@@H](CC1CCCCC1)C(N)=O)[C@@H](C)O | – |
| 0.16 nM | 0.6 nM | CC(=O)N[C@@H](CO)C(=O)N1CCC[C@@H]1C(=O)N[C@@H](CCCNC(=N)N)C(=O)N[C@@H](Cc1cnc[nH]1)C(=O)N[C@@H](CC1CCCCC1)C(=O)N[C@@H](CC1CCCCC1)C(=O)N[C@@H](CC(N)=O)C(=O)N[C@@H](CCCNC(=N)N)C(=O)NC(C)(C)C(=O)N[C@H](C(=O)N[C@@H](CCCNC(=N)N)C(=O)N[C@@H](CCC(N)=O)C(=O)N[C@@H](CCCNC(=N)N)C(=O)N[C@@H](CC1CCCCC1)C(N)=O)[C@@H](C)O | 59% |
| 1 nM | 2.8 nM | CC(=O)N[C@@H](CO)C(=O)N1CCC[C@@H]1C(=O)N[C@@H](CCCNC(=N)N)C(=O)N[C@@H](Cc1cnc[nH]1)C(=O)N[C@@H](CC1CCCCC1)C(=O)N[C@@H](Cc1cnc[nH]1)C(=O)N[C@@H](CC(N)=O)C(=O)N[C@@H](CC(C)C)C(=O)NC(C)(C)C(=O)N[C@H](C(=O)N[C@@H](CCCNC(=N)N)C(=O)N[C@@H](CCC(N)=O)C(=O)N[C@@H](CCCNC(=N)N)C(=O)N[C@@H](CC1CCCCC1)C(N)=O)[C@@H](C)O | – |
| 0.41 nM | 0.94 nM | CC(=O)N[C@@H](CO)C(=O)N1CCC[C@@H]1C(=O)N[C@@H](CCCNC(=N)N)C(=O)N[C@@H](Cc1cnc[nH]1)C(=O)N[C@@H](CC1CCCCC1)C(=O)N[C@@](C)(CC(C)C)C(=O)N[C@@H](CC(N)=O)C(=O)N[C@@H](CC(C)C)C(=O)NC(C)(C)C(=O)N[C@H](C(=O)N[C@@H](CCCNC(=N)N)C(=O)N[C@@H](CCC(N)=O)C(=O)N[C@@H](CCCNC(=N)N)C(=O)N[C@@H](CC1CCCCC1)C(N)=O)[C@@H](C)O | 59% |
| 1.7 nM | 2.6 nM | CC(=O)N[C@@H](CO)C(=O)N1CCC[C@@H]1C(=O)N[C@@H](CCCNC(=N)N)C(=O)N[C@@H](Cc1cnc[nH]1)C(=O)NC(C)(C)C(=O)N[C@@H](CC1CCCCC1)C(=O)N[C@@H](CC(N)=O)C(=O)N[C@@H](CC(C)C)C(=O)NC(C)(C)C(=O)N[C@H](C(=O)N[C@@H](CCCNC(=N)N)C(=O)N[C@@H](CCC(N)=O)C(=O)N[C@@H](CCCNC(=N)N)C(=O)N[C@@H](CC1CCCCC1)C(N)=O)[C@@H](C)O | – |
| 0.42 nM | 1.1 nM | CC(=O)N[C@@H](CO)C(=O)N1CCC[C@@H]1C(=O)N[C@@H](CCCNC(=N)N)C(=O)N[C@@H](CCC(N)=O)C(=O)N[C@@H](CC1CCCCC1)C(=O)N[C@@H](CC1CCCCC1)C(=O)N[C@@H](CC(N)=O)C(=O)N[C@@H](CC(C)C)C(=O)NC(C)(C)C(=O)N[C@H](C(=O)N[C@@H](CCCNC(=N)N)C(=O)N[C@@H](CCC(N)=O)C(=O)N[C@@H](CCCNC(=N)N)C(=O)N[C@@H](CC1CCCCC1)C(N)=O)[C@@H](C)O | 55% |
| 0.33 nM | 0.97 nM | CC(=O)N[C@@H](CO)C(=O)N1CCC[C@@H]1C(=O)N[C@@H](CCCNC(=N)N)C(=O)N[C@@H](CO)C(=O)N[C@@H](CC1CCCCC1)C(=O)N[C@@H](CC1CCCCC1)C(=O)N[C@@H](CC(N)=O)C(=O)N[C@@H](CC(C)C)C(=O)NC(C)(C)C(=O)N[C@H](C(=O)N[C@@H](CCCNC(=N)N)C(=O)N[C@@H](CCC(N)=O)C(=O)N[C@@H](CCCNC(=N)N)C(=O)N[C@@H](CC1CCCCC1)C(N)=O)[C@@H](C)O | 54% |
| 0.19 nM | 0.49 nM | CC(=O)N[C@@H](CO)C(=O)N1CCC[C@@H]1C(=O)N[C@@H](CCCNC(=N)N)C(=O)N[C@@H](Cc1ccncc1)C(=O)N[C@@H](CC1CCCCC1)C(=O)N[C@@H](CC1CCCCC1)C(=O)N[C@@H](CC(N)=O)C(=O)N[C@@H](CC(C)C)C(=O)NC(C)(C)C(=O)N[C@H](C(=O)N[C@@H](CCCNC(=N)N)C(=O)N[C@@H](CCC(N)=O)C(=O)N[C@@H](CCCNC(=N)N)C(=O)N[C@@H](CC1CCCCC1)C(N)=O)[C@@H](C)O | 72% |
| 0.21 nM | 1.3 nM | CCCC[C@H](NC(=O)[C@H](CC(N)=O)NC(=O)[C@H](CC1CCCCC1)NC(=O)[C@H](CC1CCCCC1)NC(=O)[C@H](Cc1cnc[nH]1)NC(=O)[C@H](CCCNC(=N)N)NC(=O)[C@H]1CCCN1C(=O)[C@H](CO)NC(C)=O)C(=O)NC(C)(C)C(=O)N[C@H](C(=O)N[C@@H](CCCNC(=N)N)C(=O)N[C@@H](CCC(N)=O)C(=O)N[C@@H](CCCNC(=N)N)C(=O)N[C@@H](CC1CCCCC1)C(N)=O)[C@@H](C)O | – |
| 0.6 nM | 2.3 nM | CC(=O)N[C@@H](CO)C(=O)N1CCC[C@@H]1C(=O)N[C@@H](CCCNC(=N)N)C(=O)N[C@@H](Cc1cnc[nH]1)C(=O)N[C@@H](CC1CCCCC1)C(=O)N[C@@H](CC1CCCCC1)C(=O)N[C@@H](CC(N)=O)C(=O)N[C@@H](CO)C(=O)NC(C)(C)C(=O)N[C@H](C(=O)N[C@@H](CCCNC(=N)N)C(=O)N[C@@H](CCC(N)=O)C(=O)N[C@@H](CCCNC(=N)N)C(=O)N[C@@H](CC1CCCCC1)C(N)=O)[C@@H](C)O | – |
| 1.8 nM | 6 nM | CC(=O)N[C@@H](CO)C(=O)N1CCC[C@@H]1C(=O)N[C@@H](CCCNC(=N)N)C(=O)N[C@@H](Cc1cnc[nH]1)C(=O)N[C@@H](Cc1ccncc1)C(=O)N[C@@H](CC1CCCCC1)C(=O)N[C@@H](CC(N)=O)C(=O)N[C@@H](CC(C)C)C(=O)NC(C)(C)C(=O)N[C@H](C(=O)N[C@@H](CCCNC(=N)N)C(=O)N[C@@H](CCC(N)=O)C(=O)N[C@@H](CCCNC(=N)N)C(=O)N[C@@H](CC1CCCCC1)C(N)=O)[C@@H](C)O | – |
| 4.4 nM | 8.7 nM | CC(=O)N[C@@H](CO)C(=O)N1CCC[C@@H]1C(=O)N[C@@H](CCCNC(=N)N)C(=O)N[C@@H](Cc1cnc[nH]1)C(=O)N[C@@H](CCC(N)=O)C(=O)N[C@@H](CC1CCCCC1)C(=O)N[C@@H](CC(N)=O)C(=O)N[C@@H](CC(C)C)C(=O)NC(C)(C)C(=O)N[C@H](C(=O)N[C@@H](CCCNC(=N)N)C(=O)N[C@@H](CCC(N)=O)C(=O)N[C@@H](CCCNC(=N)N)C(=O)N[C@@H](CC1CCCCC1)C(N)=O)[C@@H](C)O | – |
| 0.48 nM | 3 nM | CC(=O)N[C@@H](CO)C(=O)N1CCC[C@@H]1C(=O)N[C@@H](CCCNC(=N)N)C(=O)N[C@@H](Cc1cnc[nH]1)C(=O)N[C@@H](CC1CCCCC1)C(=O)N[C@@H](CC1CCCCC1)C(=O)N[C@@H](CC(N)=O)C(=O)N[C@@H](Cc1ccncc1)C(=O)NC(C)(C)C(=O)N[C@H](C(=O)N[C@@H](CCCNC(=N)N)C(=O)N[C@@H](CCC(N)=O)C(=O)N[C@@H](CCCNC(=N)N)C(=O)N[C@@H](CC1CCCCC1)C(N)=O)[C@@H](C)O | – |
| 3.8 nM | 11 nM | CC(=O)N[C@@H](CO)C(=O)N1CCC[C@@H]1C(=O)N[C@@H](CCCNC(=N)N)C(=O)N[C@@H](Cc1cnc[nH]1)C(=O)N[C@@H](Cc1cnc[nH]1)C(=O)N[C@@H](CC1CCCCC1)C(=O)N[C@@H](CC(N)=O)C(=O)N[C@@H](CC(C)C)C(=O)NC(C)(C)C(=O)N[C@H](C(=O)N[C@@H](CCCNC(=N)N)C(=O)N[C@@H](CCC(N)=O)C(=O)N[C@@H](CCCNC(=N)N)C(=O)N[C@@H](CC1CCCCC1)C(N)=O)[C@@H](C)O | – |
